# Results reported in US11485719B2, “Water soluble 3-ketocoumarins” (priority 2017, dated 2022).
# Assays:
# [1] = Reactivity test, water based clear formulation (FT-IR photopolymerization); settings: 3% wt photoinitiator + 3% wt triethanolamine in UCECOAT7200/Ebecryl 350 99:1
# Experimental: The photopolymerizable compositions for the test were prepared dissolving the photoinitiators and the co-initiator, triethanolamine, at a concentration of 3% by weight (wt) each in a mixture 99:1 wt of UCECOAT7200 and Ebecryl 350 (Allnex). The reference compound Omnirad 819 DW (45% wt in water) (COMP-1) was dissolved at a concentration of 6.6% by weight to have the same amount of active content.
# (§1) The photopolymerizable compositions placed in the sample lodgment of a FT-IR (FT-IR 430-Jasco), were exposed to two different sources: • 1) a LED source (400 nm) located at a distance of 25 mm from the sample and at an angle of 30°. (Table 1) • 2) A Mercury lamp (160 W) located at a distance of 65 mm from the sample and at an angle of 30°. (Table 2)
# (§2) IR spectra were acquired at constant time intervals during the photopolymerization and the reduction over the time of the area of the peaks at 1408 and 810 cm^−1 assigned to the acrylic double bonds was determined using the IR software. This allows quantifying the degree of polymerization and therefore the efficiency of the photoinitiator.
# The results at 400 nm, expressed as % of polymerization over the time, are reported in Table 1 and the results with the Mercury lamp are reported in Table 2.
# [2] = Reactivity test, water based black inkjet ink (FT-IR photopolymerization); settings: 5.0% wt photoinitiator + 5.0% wt triethanolamine in water based black ink
# Experimental: The photopolymerizable compositions for the test were prepared by dissolving the photoinitiators and the co-initiator triethanolamine at a concentration of 5.0% wt each in a water based black ink for ink-jet printing. The reference compound Omnirad 819 DW (45% wt in water) (COMP-1) was dissolved at a concentration of 11% by weight to have the same amount of active content.
# as §1, with “(Table 3)” for “(Table 1)”, “(Table 4)” for “(Table 2)”
# as §2, with “1408 cm^−1” for “1408”
# The results at 400 nm, expressed as % of polymerization over the time, are reported in Table 3 and the results with the Mercury lamp are reported in Table 4.
SMILES,"% of polymerization over the time ([1]; LED source 400 nm, 0.5 sec)","% of polymerization over the time ([1]; LED source 400 nm, 2 sec)","% of polymerization over the time ([1]; Mercury lamp 160 W, 0.2 sec)","% of polymerization over the time ([1]; Mercury lamp 160 W, 1 sec)","% of polymerization over the time ([2]; LED source 400 nm, 0.5 sec)","% of polymerization over the time ([2]; LED source 400 nm, 2 sec)","% of polymerization over the time ([2]; Mercury lamp 160 W, 0.2 sec)","% of polymerization over the time ([2]; Mercury lamp 160 W, 1 sec)"
COc1cc(OC)c2cc(C(=O)c3ccc(CCC(=O)O)cc3)c(=O)oc2c1 [Example 8],7%,15%,9%,16%,–,–,–,–
COc1cc(OC)c2cc(C(=O)c3ccc(CC[N+]4(C)CCCCC4)cc3)c(=O)oc2c1.[Cl-] [Example 14],23%,27%,15%,23%,38%,62%,67%,89%
